# Assays:
# Assay in all cases: radiometric filter-binding kinase assay, Kinase HotSpot
# Conditions in all cases: compound 0.5 µM; ATP 10 µM
# [1] = biological target: MAPK10 (human) (UniProt P53779)
# [2] = biological target: CAMK1D (human) (UniProt Q8IU85)
# [3] = biological target: PKN2 (human) (UniProt Q16513)
# [4] = biological target: CDK9 CCNT1 (human) (UniProt P50750+O60563)
# [5] = biological target: STK11 (human) (UniProt Q15831)
# [6] = system: MAP2K6 (human), P52564 [S207E/T211E]
# [7] = biological target: MARK4 (human) (UniProt Q96L34)
# [8] = biological target: NEK1 (human) (UniProt Q96PY6)
# [9] = biological target: FGR (human) (UniProt P09769)
# [10] = biological target: PTK6 (human) (UniProt Q13882)
# [11] = biological target: MAP3K2 (human) (UniProt Q9Y2U5)
# [12] = biological target: INSR (human) (UniProt P06213)
# [13] = biological target: STK16 (human) (UniProt O75716)
# [14] = system: PRKCQ (human), Q04759 [P330L]
# [15] = biological target: BTK (human) (UniProt Q06187)
# [16] = biological target: BRSK2 (human) (UniProt Q8IWQ3)
# [17] = biological target: LRRK2 (human) (UniProt Q5S007)
# [18] = biological target: TBK1 (human) (UniProt Q9UHD2)
# [19] = biological target: MAP2K2 (human) (UniProt P36507)
# [20] = biological target: BMX (human) (UniProt P51813)
# [21] = biological target: PAK2 (human) (UniProt Q13177)
# [22] = biological target: KIT (human) (UniProt P10721)
# [23] = biological target: SRPK2 (human) (UniProt P78362)
# [24] = biological target: MAPK14 (human) (UniProt Q16539)
# [25] = biological target: CDK2 CCNE1 (human) (UniProt P24941+P24864)
# [26] = biological target: ZAP70 (human) (UniProt P43403)
# [27] = biological target: CAMK1G (human) (UniProt Q96NX5)
# [28] = system: MKNK1 (human), Q9BUB5 [T385D; 165-205 del]
# [29] = biological target: STK17A (human) (UniProt Q9UEE5)
# [30] = biological target: FER (human) (UniProt P16591)
# [31] = biological target: CSNK2A1 (human) (UniProt P68400)
# [32] = biological target: PKN1 (human) (UniProt Q16512)
# [33] = biological target: STK10 (human) (UniProt O94804)
# [34] = biological target: SRC (human) (UniProt P12931)
# [35] = biological target: NEK2 (human) (UniProt P51955)
# [36] = biological target: HIPK3 (human) (UniProt Q9H422)
# [37] = biological target: CDK4 CCND3 (human) (UniProt P30281+P11802)
# [38] = biological target: IRAK4 (human) (UniProt Q9NWZ3)
# [39] = biological target: MAPK11 (human) (UniProt Q15759)
# [40] = biological target: CAMK1 (human) (UniProt Q14012)
# [41] = biological target: CDK1 CCNB1 (human) (UniProt P06493+P14635)
# PRKCQ (human), Q04759 [P330L], sequence (Q04759 whole entry P330L, looked up): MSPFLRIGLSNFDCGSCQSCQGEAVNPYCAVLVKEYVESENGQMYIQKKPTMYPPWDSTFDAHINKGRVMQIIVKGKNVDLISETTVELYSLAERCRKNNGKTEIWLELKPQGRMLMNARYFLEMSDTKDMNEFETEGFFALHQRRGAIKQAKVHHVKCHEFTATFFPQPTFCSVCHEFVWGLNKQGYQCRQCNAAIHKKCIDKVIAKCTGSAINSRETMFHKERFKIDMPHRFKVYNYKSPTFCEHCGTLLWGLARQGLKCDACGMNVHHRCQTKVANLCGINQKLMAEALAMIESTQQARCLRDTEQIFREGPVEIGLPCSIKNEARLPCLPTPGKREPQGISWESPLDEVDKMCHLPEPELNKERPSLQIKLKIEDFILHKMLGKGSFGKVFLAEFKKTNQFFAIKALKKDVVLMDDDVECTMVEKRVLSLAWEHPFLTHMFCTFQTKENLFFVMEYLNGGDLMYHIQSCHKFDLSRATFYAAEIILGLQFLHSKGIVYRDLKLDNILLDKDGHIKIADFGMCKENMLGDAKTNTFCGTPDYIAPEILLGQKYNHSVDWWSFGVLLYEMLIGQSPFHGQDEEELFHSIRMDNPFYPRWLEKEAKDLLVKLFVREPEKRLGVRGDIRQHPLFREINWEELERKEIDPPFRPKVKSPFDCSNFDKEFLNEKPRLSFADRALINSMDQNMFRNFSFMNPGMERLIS
# BMX (human), sequence (P51813 whole entry, looked up): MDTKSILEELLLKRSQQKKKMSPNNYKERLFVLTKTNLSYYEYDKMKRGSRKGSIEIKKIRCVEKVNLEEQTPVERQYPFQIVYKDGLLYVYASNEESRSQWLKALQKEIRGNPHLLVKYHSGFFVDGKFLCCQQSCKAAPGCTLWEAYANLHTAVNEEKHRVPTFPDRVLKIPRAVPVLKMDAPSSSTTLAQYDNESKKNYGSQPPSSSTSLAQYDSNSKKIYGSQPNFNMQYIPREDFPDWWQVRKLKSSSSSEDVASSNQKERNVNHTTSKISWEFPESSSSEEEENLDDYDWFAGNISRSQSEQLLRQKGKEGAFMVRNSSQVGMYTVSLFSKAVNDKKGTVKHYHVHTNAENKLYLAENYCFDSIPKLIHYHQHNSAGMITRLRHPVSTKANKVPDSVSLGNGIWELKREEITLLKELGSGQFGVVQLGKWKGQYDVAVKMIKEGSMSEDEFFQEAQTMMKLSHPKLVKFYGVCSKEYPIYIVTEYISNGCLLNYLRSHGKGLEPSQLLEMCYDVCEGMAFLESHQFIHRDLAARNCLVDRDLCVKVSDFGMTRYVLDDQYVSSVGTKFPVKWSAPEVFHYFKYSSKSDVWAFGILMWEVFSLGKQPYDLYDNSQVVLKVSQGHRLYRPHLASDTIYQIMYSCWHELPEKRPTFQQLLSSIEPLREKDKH
# CDK9 CCNT1 (human), sequence (O60563 whole entry, looked up): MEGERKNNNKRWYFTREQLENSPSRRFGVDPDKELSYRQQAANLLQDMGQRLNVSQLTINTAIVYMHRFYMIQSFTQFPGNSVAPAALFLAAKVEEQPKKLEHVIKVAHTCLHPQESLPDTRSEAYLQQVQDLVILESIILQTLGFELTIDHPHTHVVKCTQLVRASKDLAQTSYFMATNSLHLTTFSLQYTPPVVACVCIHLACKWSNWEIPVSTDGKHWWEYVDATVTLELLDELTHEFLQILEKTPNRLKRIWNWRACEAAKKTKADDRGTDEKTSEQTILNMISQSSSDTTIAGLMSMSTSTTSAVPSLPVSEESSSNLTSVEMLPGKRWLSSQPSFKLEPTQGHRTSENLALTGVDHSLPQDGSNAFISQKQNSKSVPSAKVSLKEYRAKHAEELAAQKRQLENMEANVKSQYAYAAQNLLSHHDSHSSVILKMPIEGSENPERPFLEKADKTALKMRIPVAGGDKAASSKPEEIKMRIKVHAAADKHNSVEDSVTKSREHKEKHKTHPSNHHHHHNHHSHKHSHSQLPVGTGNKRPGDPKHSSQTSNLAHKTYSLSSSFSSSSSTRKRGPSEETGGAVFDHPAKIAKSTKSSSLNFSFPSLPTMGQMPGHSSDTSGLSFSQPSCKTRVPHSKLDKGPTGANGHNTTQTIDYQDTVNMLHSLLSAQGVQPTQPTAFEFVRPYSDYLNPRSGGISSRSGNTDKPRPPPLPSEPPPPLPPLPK
# CDK9 CCNT1 (human), sequence (P50750 whole entry, looked up): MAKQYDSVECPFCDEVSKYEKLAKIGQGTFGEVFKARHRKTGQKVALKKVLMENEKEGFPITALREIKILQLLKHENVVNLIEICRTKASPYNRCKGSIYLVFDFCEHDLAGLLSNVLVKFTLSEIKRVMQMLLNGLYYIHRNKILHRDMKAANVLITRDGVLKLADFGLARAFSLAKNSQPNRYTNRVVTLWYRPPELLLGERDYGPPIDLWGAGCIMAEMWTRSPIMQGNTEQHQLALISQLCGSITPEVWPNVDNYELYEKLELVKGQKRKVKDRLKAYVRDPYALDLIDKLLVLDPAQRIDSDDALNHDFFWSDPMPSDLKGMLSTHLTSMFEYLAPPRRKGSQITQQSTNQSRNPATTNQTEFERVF
# CDK4 CCND3 (human), sequence (P11802 whole entry, looked up): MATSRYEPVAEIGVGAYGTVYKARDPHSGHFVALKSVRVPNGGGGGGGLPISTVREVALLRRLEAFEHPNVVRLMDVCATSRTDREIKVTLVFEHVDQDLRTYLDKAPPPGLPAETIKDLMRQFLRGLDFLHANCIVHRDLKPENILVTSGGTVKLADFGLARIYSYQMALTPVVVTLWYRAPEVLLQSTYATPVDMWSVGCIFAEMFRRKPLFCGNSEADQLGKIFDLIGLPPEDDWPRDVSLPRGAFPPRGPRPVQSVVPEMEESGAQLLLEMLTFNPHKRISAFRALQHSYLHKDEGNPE
# CDK4 CCND3 (human), sequence (P30281 whole entry, looked up): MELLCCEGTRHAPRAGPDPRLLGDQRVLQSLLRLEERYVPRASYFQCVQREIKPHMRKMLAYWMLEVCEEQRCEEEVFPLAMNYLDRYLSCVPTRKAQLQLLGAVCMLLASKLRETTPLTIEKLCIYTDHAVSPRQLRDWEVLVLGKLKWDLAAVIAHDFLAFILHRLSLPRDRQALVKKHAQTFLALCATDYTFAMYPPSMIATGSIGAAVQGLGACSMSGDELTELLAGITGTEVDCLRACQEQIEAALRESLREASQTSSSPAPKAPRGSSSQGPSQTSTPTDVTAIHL
# INSR (human), sequence (P06213 whole entry, looked up): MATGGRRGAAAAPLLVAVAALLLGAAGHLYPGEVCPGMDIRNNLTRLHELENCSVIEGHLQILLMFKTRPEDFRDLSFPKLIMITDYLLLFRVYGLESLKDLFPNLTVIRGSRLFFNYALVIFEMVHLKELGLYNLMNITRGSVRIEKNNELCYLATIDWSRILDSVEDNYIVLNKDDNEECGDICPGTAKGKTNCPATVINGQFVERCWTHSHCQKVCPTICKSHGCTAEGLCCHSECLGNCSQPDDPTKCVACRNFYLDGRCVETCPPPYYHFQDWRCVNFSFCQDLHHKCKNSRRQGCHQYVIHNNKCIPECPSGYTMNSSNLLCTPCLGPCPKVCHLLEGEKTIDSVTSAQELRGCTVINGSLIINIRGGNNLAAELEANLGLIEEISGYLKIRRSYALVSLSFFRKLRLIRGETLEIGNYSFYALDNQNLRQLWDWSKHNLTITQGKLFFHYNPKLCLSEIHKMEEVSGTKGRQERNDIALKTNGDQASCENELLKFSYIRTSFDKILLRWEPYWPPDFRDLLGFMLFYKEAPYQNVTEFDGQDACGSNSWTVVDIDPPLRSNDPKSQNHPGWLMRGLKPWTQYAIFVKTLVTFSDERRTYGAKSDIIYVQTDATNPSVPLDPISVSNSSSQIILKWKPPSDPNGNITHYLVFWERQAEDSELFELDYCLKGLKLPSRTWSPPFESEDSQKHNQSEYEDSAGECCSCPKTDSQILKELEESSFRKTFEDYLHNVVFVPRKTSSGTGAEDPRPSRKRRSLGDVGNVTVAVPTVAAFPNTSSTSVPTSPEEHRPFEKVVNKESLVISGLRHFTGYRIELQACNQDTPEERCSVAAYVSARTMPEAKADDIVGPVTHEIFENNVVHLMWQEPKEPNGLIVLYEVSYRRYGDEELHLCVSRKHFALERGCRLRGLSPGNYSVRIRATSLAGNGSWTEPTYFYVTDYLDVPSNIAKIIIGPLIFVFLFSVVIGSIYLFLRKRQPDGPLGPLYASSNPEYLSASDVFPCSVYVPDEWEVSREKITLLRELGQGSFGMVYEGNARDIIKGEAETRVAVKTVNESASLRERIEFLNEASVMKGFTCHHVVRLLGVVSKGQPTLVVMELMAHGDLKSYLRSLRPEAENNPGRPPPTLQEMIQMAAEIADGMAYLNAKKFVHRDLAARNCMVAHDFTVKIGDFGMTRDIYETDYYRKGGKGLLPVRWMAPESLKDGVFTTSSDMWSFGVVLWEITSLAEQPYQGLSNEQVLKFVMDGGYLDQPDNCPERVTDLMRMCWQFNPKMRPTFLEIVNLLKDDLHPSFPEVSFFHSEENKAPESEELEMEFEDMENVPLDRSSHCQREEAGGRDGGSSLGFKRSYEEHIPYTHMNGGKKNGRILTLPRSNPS
# MAP2K6 (human), P52564 [S207E/T211E], sequence (P52564 whole entry S207E/T211E, looked up): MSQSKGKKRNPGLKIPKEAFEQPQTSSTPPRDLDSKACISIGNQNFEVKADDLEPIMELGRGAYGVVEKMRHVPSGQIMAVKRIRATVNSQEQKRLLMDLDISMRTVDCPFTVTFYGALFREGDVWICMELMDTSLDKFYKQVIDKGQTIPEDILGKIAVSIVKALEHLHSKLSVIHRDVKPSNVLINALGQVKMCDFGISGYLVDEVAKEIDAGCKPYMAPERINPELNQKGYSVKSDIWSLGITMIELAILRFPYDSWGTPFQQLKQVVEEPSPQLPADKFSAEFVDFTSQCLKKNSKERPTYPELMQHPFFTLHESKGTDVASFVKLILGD
smiles,measurement,setting,value
COc1cc2ncnc(Nc3ccc(OCc4ccccc4)cc3)c2cc1OC,residual activity,[1],84.5%
same,residual activity,[2],104%
same,residual activity,[3],94.1%
same,residual activity,[4],94.5%
same,residual activity,[5],102%
same,residual activity,[6],109%
same,residual activity,[7],99.5%
same,residual activity,[8],104%
same,residual activity,[9],72.2%
same,residual activity,[10],37.9%
same,residual activity,[11],113%
same,residual activity,[12],100%
same,residual activity,[13],106%
same,residual activity,[14],102%
same,residual activity,[15],90.6%
same,residual activity,[16],98.7%
same,residual activity,[17],92.2%
same,residual activity,[18],101%
same,residual activity,[19],98.5%
same,residual activity,[20],89.7%
same,residual activity,[21],102%
same,residual activity,[22],63%
same,residual activity,[23],92.3%
same,residual activity,[24],101%
same,residual activity,[25],96.7%
same,residual activity,[26],87.6%
same,residual activity,[27],97.1%
same,residual activity,[28],101%
same,residual activity,[29],99.6%
same,residual activity,[30],90.8%
same,residual activity,[31],95.8%
same,residual activity,[32],101%
same,residual activity,[33],68.2%
same,residual activity,[34],102%
same,residual activity,[35],107%
same,residual activity,[36],85.3%
same,residual activity,[37],102%
same,residual activity,[38],119%
same,residual activity,[39],96.9%
same,residual activity,[40],98.4%
same,residual activity,[41],89.9%
O=C1NC(=O)c2c1c1c3ccccc3[nH]c1n1cncc21,residual activity,[1],96%
same,residual activity,[2],91.9%
same,residual activity,[3],95.5%
same,residual activity,[4],82.9%
same,residual activity,[5],45.2%
same,residual activity,[6],65.7%
same,residual activity,[7],26.8%
same,residual activity,[8],75.2%
same,residual activity,[9],94.8%
same,residual activity,[10],89%
same,residual activity,[11],97.9%
same,residual activity,[12],17.9%
same,residual activity,[13],70.9%
same,residual activity,[14],88.9%
same,residual activity,[15],83.9%
same,residual activity,[16],29.7%
same,residual activity,[17],61.3%
same,residual activity,[18],81.9%
same,residual activity,[19],85.9%
same,residual activity,[20],91.7%
same,residual activity,[21],99%
same,residual activity,[22],38%
same,residual activity,[23],80.2%
same,residual activity,[24],101%
same,residual activity,[25],66.5%
same,residual activity,[26],87.8%
same,residual activity,[27],94.7%
same,residual activity,[28],56.3%
same,residual activity,[29],36.6%
same,residual activity,[30],47.9%
same,residual activity,[31],52.6%
same,residual activity,[32],76.4%
same,residual activity,[33],69%
same,residual activity,[34],88.4%
same,residual activity,[35],87.5%
same,residual activity,[36],66.9%
same,residual activity,[37],87.1%
same,residual activity,[38],84.8%
same,residual activity,[39],94.5%
same,residual activity,[40],83.3%
same,residual activity,[41],85.5%
N#Cc1c[nH]c2c[nH]/c(=N\Cc3cccnc3)cc2/c1=N\c1ccc(F)c(Cl)c1,residual activity,[1],95%
same,residual activity,[2],97.8%
same,residual activity,[3],85.9%
same,residual activity,[4],91.2%
same,residual activity,[5],91.1%
same,residual activity,[6],115%
same,residual activity,[7],96.4%
same,residual activity,[8],20.5%
same,residual activity,[9],84.5%
same,residual activity,[10],84.1%
same,residual activity,[11],81.2%
same,residual activity,[12],85.1%
same,residual activity,[13],93.8%
same,residual activity,[14],113%
same,residual activity,[15],98.3%
same,residual activity,[16],100%
same,residual activity,[17],86.6%
same,residual activity,[18],83.4%
same,residual activity,[19],105%
same,residual activity,[20],84%
same,residual activity,[21],66.6%
same,residual activity,[22],92.9%
same,residual activity,[23],101%
same,residual activity,[24],115%
same,residual activity,[25],94.1%
same,residual activity,[26],103%
same,residual activity,[27],96.1%
same,residual activity,[28],73.2%
same,residual activity,[29],79.6%
same,residual activity,[30],82.9%
same,residual activity,[31],95.9%
same,residual activity,[32],101%
same,residual activity,[33],52.8%
same,residual activity,[34],92.6%
same,residual activity,[35],75.2%
same,residual activity,[36],96.5%
same,residual activity,[37],101%
same,residual activity,[38],100%
same,residual activity,[39],102%
same,residual activity,[40],99.1%
same,residual activity,[41],84.6%
COc1ccc(C(=O)Nc2sc3c(c2C(N)=O)CCCC3)cc1OC,residual activity,[1],84.5%
same,residual activity,[2],93.8%
same,residual activity,[3],98.5%
same,residual activity,[4],102%
same,residual activity,[5],103%
same,residual activity,[6],114%
same,residual activity,[7],86.5%
same,residual activity,[8],89.8%
same,residual activity,[9],90%
same,residual activity,[10],97.8%
same,residual activity,[11],105%
same,residual activity,[12],93.2%
same,residual activity,[13],106%
same,residual activity,[14],97.5%
same,residual activity,[15],104%
same,residual activity,[16],97.9%
same,residual activity,[17],87.4%
same,residual activity,[18],102%
same,residual activity,[19],95.3%
same,residual activity,[20],89.8%
same,residual activity,[21],99.1%
same,residual activity,[22],46.2%
same,residual activity,[23],97.6%
same,residual activity,[24],97.5%
same,residual activity,[25],94.6%
same,residual activity,[26],95.6%
same,residual activity,[27],99.4%
same,residual activity,[28],98.2%
same,residual activity,[29],98.5%
same,residual activity,[30],89.8%
same,residual activity,[31],98.8%
same,residual activity,[32],96.3%
same,residual activity,[33],93.9%
same,residual activity,[34],100%
same,residual activity,[35],95.4%
same,residual activity,[36],105%
same,residual activity,[37],98.8%
same,residual activity,[38],94.8%
same,residual activity,[39],104%
same,residual activity,[40],90.9%
same,residual activity,[41],94.3%
NC(=O)c1cccc(-c2cc(Nc3ccc(OC(F)(F)F)cc3)ncn2)c1,residual activity,[1],104%
same,residual activity,[2],105%
same,residual activity,[3],89.8%
same,residual activity,[4],82.2%
same,residual activity,[5],97.2%
same,residual activity,[6],101%
same,residual activity,[7],98.1%
same,residual activity,[8],89.6%
same,residual activity,[9],96.8%
same,residual activity,[10],94.5%
same,residual activity,[11],79.5%
same,residual activity,[12],105%
same,residual activity,[13],81.8%
same,residual activity,[14],104%
same,residual activity,[15],99.1%
same,residual activity,[16],93%
same,residual activity,[17],108%
same,residual activity,[18],92.4%
same,residual activity,[19],92.5%
same,residual activity,[20],107%
same,residual activity,[21],106%
same,residual activity,[22],100%
same,residual activity,[23],105%
same,residual activity,[24],92%
same,residual activity,[25],86.6%
same,residual activity,[26],97.1%
same,residual activity,[27],98.1%
same,residual activity,[28],95.9%
same,residual activity,[29],98.7%
same,residual activity,[30],105%
same,residual activity,[31],94.6%
same,residual activity,[32],98.9%
same,residual activity,[33],101%
same,residual activity,[34],97%
same,residual activity,[35],95.6%
same,residual activity,[36],104%
same,residual activity,[37],98.4%
same,residual activity,[38],159%
same,residual activity,[39],105%
same,residual activity,[40],97.5%
same,residual activity,[41],92.5%

# Reference: the kinase profiling compilation of Christmann-Franck et al. (2016)
